According to the supplement of paper PMC10307832:

Key:
MK-2206 = compound: NC1(c2ccc(-c3nc4ccn5c(=O)[nH]nc5c4cc3-c3ccccc3)cc2)CCC1 [MK-2206]; test: relative viability (nuclei count vs DMSO), 5 days (fraction); higher = more cells survive
In short: (§1)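 Viability is treated-well nuclei as a fraction of vehicle-well nuclei, reported as the median across plates. Before counting, lung cancer cell lines were kept overnight at 37 °C in 1536-well plates, pinned with five √10-spaced library-drug doses on vehicle-anchored plates, and left 5 days without medium change, then fixed, permeabilised and Hoechst-stained in one step, imaged at 4× and counted by MetaXpress. A plate passed only if control CV was below 25% and at least one doubling occurred.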

Pictilisib = compound: CS(=O)(=O)N1CCN(Cc2cc3nc(-c4cccc5[nH]ncc45)nc(N4CCOCC4)c3s2)CC1 [Pictilisib]; test: as above
In short: as §1

Cell Line | relative viability (MK-2206; 0.01 µM) | relative viability (MK-2206; 0.03162 µM) | relative viability (MK-2206; 0.3162 µM) | relative viability (MK-2206; 1 µM) | relative viability (Pictilisib; 0.02 µM) | relative viability (Pictilisib; 0.06325 µM) | relative viability (Pictilisib; 0.6325 µM) | relative viability (Pictilisib; 1 µM, anchor plate) | relative viability (Pictilisib; 2 µM)
IA-LM | 0.904 | 0.992 | 1.02 | 0.691 | 0.924 | 1.03 | 0.941 | 0.373 | 0.476
NCI-H520 | 0.992 | 0.871 | 0.553 | 0.331 | 0.998 | 0.886 | 0.361 | 0.298 | 0.203
LXF-289 | 0.995 | 1.07 | 1.03 | 1.09 | 0.996 | 1.01 | 1.08 | 0.814 | 0.92
NCI-H2087 | 0.938 | 1.25 | 0.881 | 0.746 | 1.07 | 1.09 | 0.968 | 0.913 | 0.689
CAL-12T | 0.939 | 1.06 | 1.07 | 0.953 | 1.12 | 1.12 | 1.03 | 0.475 | 0.589
NCI-H596 | 1.07 | 0.929 | 0.948 | 0.669 | 0.98 | 0.957 | 0.684 | 0.405 | 0.373
PC-14 | 0.937 | 1.02 | 0.991 | 1 | 1.1 | 1.14 | 0.994 | 0.672 | 0.703
NCI-H1915 | 1 | 1.06 | 0.967 | 0.95 | 1.06 | 1.04 | 0.95 | 0.96 | 0.909
NCI-H647 | 0.951 | 1.11 | 0.921 | 0.744 | 1.09 | 1.03 | 0.78 | 0.476 | 0.471
NCI-H322M | 0.914 | 1.06 | 0.981 | 1.05 | 0.988 | 0.973 | 0.714 | 0.531 | 0.453
A549 | 1.02 | 1.07 | 0.921 | 0.877 | 0.992 | 0.97 | 0.731 | 0.517 | 0.437
NCI-H2170 | 0.93 | 1.03 | 0.923 | 0.877 | 1 | 1.02 | 0.86 | 0.329 | 0.556
BEN | 0.97 | 1.08 | 1.07 | 0.836 | 1 | 1.01 | 0.951 | 0.57 | 0.75
NCI-H2009 | 0.97 | 1.04 | 1.02 | 0.993 | 1.03 | 1.04 | 0.967 | 0.783 | 0.679
LC-2-ad | 0.969 | 1.05 | 0.994 | 0.876 | 1.05 | 1.07 | 0.619 | 0.496 | 0.594
NCI-H1437 | 0.993 | 0.963 | 1.07 | 0.925 | 1.03 | 1.06 | 0.902 | 0.482 | 0.528
NCI-H3122 | 1.02 | 1.03 | 1.05 | 0.984 | 1.01 | 1.04 | 0.954 | 0.644 | 0.511
NCI-H1563 | 0.925 | 0.975 | 0.885 | 0.764 | 1.01 | 0.929 | 0.668 | 0.626 | 0.533
NCI-H727 | 0.976 | 1.01 | 0.901 | 0.894 | 1.04 | 0.92 | 0.914 | 0.39 | 0.536

Cell Line | relative viability (MK-2206; 0.01 µM) | relative viability (MK-2206; 0.03162 µM) | relative viability (MK-2206; 0.3162 µM) | relative viability (MK-2206; 1 µM) | relative viability (Pictilisib; 0.02 µM) | relative viability (Pictilisib; 0.06325 µM) | relative viability (Pictilisib; 0.6325 µM) | relative viability (Pictilisib; 1 µM, anchor plate) | relative viability (Pictilisib; 2 µM)
Calu-6 | 1.02 | 1.06 | 1.01 | 0.962 | 1.05 | 1.04 | 1.01 | 0.907 | 0.792
NCI-H1734 | 1.01 | 0.988 | 0.764 | 0.795 | 1.04 | 0.998 | 0.623 | 0.475 | 0.435
HCC-15 | 0.996 | 1.06 | 0.866 | 0.923 | 1.1 | 1.02 | 0.866 | 0.737 | 0.666
NCI-H2405 | 1.02 | 1.03 | 0.968 | 0.839 | 1.07 | 0.977 | 0.851 | 0.433 | 0.451
NCI-H1993 | 0.907 | 0.987 | 0.737 | 0.618 | 0.94 | 0.869 | 0.639 | 0.766 | 0.674
NCI-H1650 | 0.854 | 1.01 | 0.883 | 0.946 | 1 | 1.01 | 0.809 | 0.598 | 0.532
NCI-H460 | 0.997 | 1.03 | 1.02 | 0.921 | 0.993 | 1.02 | 0.933 | 0.381 | 0.353
NCI-H1651 | 0.949 | 0.968 | 1.03 | 0.937 | 0.961 | 0.997 | 0.918 | 0.639 | 0.631
NCI-H1975 | 1.06 | 0.931 | 0.913 | 0.728 | 0.98 | 0.804 | 0.605 | 0.307 | 0.292
NCI-H2126 | 1.04 | 1.03 | 0.913 | 0.92 | 0.999 | 0.992 | 0.806 | 0.52 | 0.57
201T | 0.987 | 1.03 | 0.982 | 0.995 | 0.97 | 0.964 | 0.921 | 0.702 | 0.64
HCC-78 | 0.945 | 0.919 | 1.02 | 0.638 | 0.867 | 0.854 | 0.586 | 0.219 | 0.376
NCI-H358 | 1.01 | 0.977 | 0.972 | 0.871 | 0.983 | 0.884 | 0.786 | 0.356 | 0.355
SK-LU-1 | 1.09 | 1.05 | 1.1 | 0.944 | 1.06 | 0.963 | 0.933 | 0.534 | 0.678
H3255 | 0.941 | 1.01 | 0.836 | 0.826 | 1.01 | 0.962 | 0.862 | 0.46 | 0.531
LOU-NH91 | 0.983 | 0.999 | 1.02 | 0.875 | 1.02 | 0.987 | 0.874 | 0.538 | 0.681
NCI-H1666 | 0.973 | 0.9 | 1.04 | 0.846 | 1.06 | 1.11 | 0.961 | 0.47 | 0.679
SK-MES-1 | 0.959 | 1.02 | 0.954 | 0.887 | 1.04 | 1.01 | 0.778 | 0.392 | 0.365
